# Legend:
# [1] = tested on: abdominal aorta of rabbits injured by use of a balloon; assay: Balloon injury of abdominal aorta in cholesterol-fed rabbits, ratio of new intima to new media (I/M); format: in vivo, Japanese white rabbits; settings: rabbits on 1% cholesterol food, 10 mg/kg intravenous injection twice per day from the day before injury, 10th week, p=0.018 vs control 0.475±0.136
# Description: (§1) Japanese white rabbits were divided into two groups, an edaravone group (n=6) and a control group (n=6), and they were fed with 1% cholesterol food for 10 weeks. On the 8th week, the rabbits of both groups were injured such that their abdominal aorta was damaged by use of a balloon. For the edaravone group, edaravone was administered every day (10 mg/kg, intravenous injection twice per day) from the day before the balloon injury. For the control group, a physiological salt solution was administered. On the 10th week, the rabbits were sacrificed, and their abdominal aorta was excised. The ratio of a new intima to a new media (the ratio of the intimal area of a blood vessel section to the medial area thereof; I/M) was measured as follows. First, total 5 portions were cut out of the abdominal aorta into round slices each having a width of 5 mm, and HE-stained samples were prepared therefrom. A new intimal area and a new medial area were analyzed with computer software, and the mean value of the 5 portions was obtained, followed by calculation of I/M.
# [2] = Total cholesterol, triglyceride and lipid peroxide in serum of balloon-injured cholesterol-fed rabbits; format: in vivo, Japanese white rabbits; settings: 10 mg/kg i.v. twice per day, before cholesterol food, at balloon injury, at sacrifice, vs control group
# Description: as §1
# Moreover, total cholesterol (TC), triglyceride (TG) and lipid peroxide (LPO) in serum were measured, before the rabbits were fed with cholesterol food, when they were injured by use of a balloon, and when they were sacrificed.
# [3] = tested on: right common carotid artery injured by abrasion with a 2F balloon; assay: Balloon injury of right common carotid artery in ovary-eliminated rats, I/M; format: in vivo; settings: ovary elimination (OVX) female SD rats, 30 mg/kg/day oral for 3 days after operation, 14th day; p<0.01 vs OVX+V 1.36±0.12
# Description: (§2) 11′-week-old female SD rats were divided into two groups, an ovary elimination group (OVX) and an ovary non-elimination group (INT). To the OVX group, edaravone (Ed) (30 mg/kg/day) (n=8) or vehicle (V) (n=7) was orally administered, and to the INT group (n=4), vehicle (V) was administered. The vascular endothelium of the right common carotid artery was injured by abrasion with a 2F balloon. The above drugs were administered for 3 days immediately after the above operation. On the 14th day, the blood vessel was excised, and the ratio of a new intima to a new media (I/M) was calculated.
# [4] = tested on: right common carotid artery injured by abrasion with a 2F balloon; assay: Balloon injury of carotid artery in OLETF rats with type II diabetes, I/M; format: in vivo; settings: male OLETF rats with type II diabetes, administered from 3 days before to 14th day after operation; p<0.01 vs vehicle 1.12±0.15
# Description: as §2, with “calculated. 30-week-old male OLETF rats with type II diabetes were divided into two groups, an edaravone (Ed) administration group (n=4) and a vehicle (V) administration group (n=4). The above-described blood vessel injury was carried out on them. The above drugs were continuously administered from 3 days before the above operation to the 14th day after the above operation. Thereafter, the ratio of a new intima to a new media (I/M) was calculated.” for “calculated.”
structure (smiles),measurement,setting,value
"CC1=NN(c2ccccc2)C(=O)C1 [edaravone, 3-methyl-1-phenyl-2-pyrazolin-5-one]",ratio of a new intima to a new media (I/M),[1],0.344±0.055
same,lipid peroxide (LPO) in serum,[2],not significantly different
same,total cholesterol (TC) in serum,[2],not significantly different
same,triglyceride (TG) in serum,[2],not significantly different
same,ratio of a new intima to a new media (I/M),[3],0.82±0.09
same,ratio of a new intima to a new media (I/M),[4],0.55±0.02

# Source: patent US7312239B2, “Medicament for prevention and/or therapy of arterial wall disorder” (Mitsubishi Pharma Corporation, priority 2002, dated 2007)
